Key:
[1] = system: creatine kinase (CK) expression in cancer cells; assay: CEST imaging of cancer cells cultured with PCr; assay type: cell-based; settings: cancer cell line cultured with PCr for 1 hour; FIG. 2
Text: (§1) In certain embodiments, the radio frequency (RF) pulse can be provided at different frequency offsets. In certain embodiments, to detect the conversion of phosphocreatine to creatine, an RF pulse was applied at a frequency offset of about 1.8 ppm for a period of about 1 to about 3 seconds.
The creatine kinase (CK) expression in cancer cells cleaves the PCr into creatine (Cr), and can be responsible for the increase in CEST contrast from creatine amine protons.

[2] = system: CK enzyme expressed in the tumor; assay: in vivo imaging of creatine kinase expression by monitoring conversion of PCr to Cr through CEST; settings: 60 minutes following tail vein injection of PCr, versus base line CEST map, FIG. 3
Description: as §1
“b” is the base line CEST map from the same slice. “c” is a CEST map of the same slice at 60 minutes following tail vein injection of PCr.

Question: How did the “elevation of the CEST contrast over cancer cells without PCr” value [1] turn out when `CN(CC(=O)O)C(=N)NP(=O)(O)O` [PCr, phosphocreatine] was run?
Answer: about 16%

Question: What about the “increase in CEST contrast” value [2] of the same compound?
Answer: about 11%

Source: patent US20160061919A1, “IMAGING OF CREATINE KINASE ENZYME EXPRESSION IN CANCEROUS TISSUES” (Sidra Medical and Research Center, priority 2014, published 2016)
